The record followed here is PubChem BioAssay (NCI).

SMILES strings stand for the structures.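 Results reflect a 48-hour exposure of cells in 96-well plates to compound at five concentrations. GI50 is the concentration that inhibits growth by half. At the TGI there is no net growth.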

Common to all, as to experiment: NCI tumour cell line growth inhibition, 48 h
The subject of test [1] is A549 NSCLC.
The subject of test [2] is HOP-62 NSCLC.
Test [3] concerns K-562 leukemia.
The test system of test [4] is NCI-H23 lung.
The test system of test [5] is NCI/ADR-RES ovarian.
In test [6] the test system is OVCAR-5 ovarian.
For test [7], the system named is RPMI-8226 leukemia.
Test [8] concerns SNB-75 CNS.
Test [9] concerns SW-620 colon.
In test [10] the test system is UACC-257 melanoma.

In the case of `Cc1ccc(N)cc1[As]=[As]c1cc(N)ccc1C` (centres undefined), the GI50 in [1] was 4.36 µM; in test [2], 1.72 µM; in test [3], 0.341 µM; in test [4], 1.7 µM; in test [5] it was 3.19 µM; in [6], 2.07 µM. For the same molecule, the GI50 is 1.07 µM in test [7], 1.27 µM in test [8], 1.27 µM in test [9] and 1.25 µM in test [10]. The TGI in test [1] was 20 µM; in [2], 3.19 µM; in test [3] it was greater than 100 µM; in [4] it was 3.58 µM; in test [5], greater than 100 µM; in test [6] it was 3.73 µM. In addition, the TGI was determined as 4.45 µM in [7], 2.59 µM in test [8], 3.2 µM in test [9] and 2.54 µM in [10].
For `C#C[C@@]1(O)[C@@H](CO)O[C@@H](n2cc(Br)c3c(Cl)ccnc32)[C@@H]1O`, the GI50 in test [1] was 7.01 µM; in test [2], 1.31 µM; in test [3], 0.542 µM; in test [4], 1.86 µM; in test [5], 0.422 µM; in test [6], 1.96 µM. The GI50 was 1.73 µM in [7], 0.657 µM in [8], 0.552 µM in test [9] and greater than 100 µM in test [10]. The TGI in [1] was greater than 100 µM; in [2], greater than 100 µM; in test [3], greater than 100 µM; in [4], greater than 100 µM; in test [5] it was 5.03 µM; in test [6] it was greater than 100 µM. Moreover, the TGI is 5.97 µM in [7], greater than 39.2 µM in [8], greater than 100 µM in [9] and greater than 100 µM in [10].
For the molecule `O=C(Nc1ccncc1)C(=O)c1cn(S(=O)(=O)c2cccc(Cl)c2)c2ccccc12`, the GI50 in [1] was 22.4 µM; in [2], 7.26 µM; in test [3], 2.5 µM; in test [4] it was 4.65 µM; in [5] it was 2.86 µM; in [6], 11.5 µM. The figures for the GI50 in test [8], in test [9] and in test [10] were 5.16 µM, 4.74 µM and 24.7 µM, respectively. The TGI in test [1] is greater than 100 µM; in test [2] it was 48.1 µM; in test [3] it was greater than 100 µM; in [4], greater than 100 µM; in [5], greater than 100 µM; in [6] it was greater than 100 µM. Also, the TGI in test [8] is 23.2 µM; in [9], greater than 100 µM; in test [10] it was greater than 100 µM.
As for `CN(C)c1ccc(/C=C(\C#N)c2cc3ccccc3[nH]2)cc1`, the GI50 in test [1] is 1.55 µM; in [2] it was 1.16 µM; in [4], 3.21 µM; in [5] it was 0.49 µM; in [6] it was 3.8 µM; in test [7], 0.63 µM. Besides, the figures for the GI50 in test [8], in test [9] and in [10] were 1.31 µM, 0.39 µM and 4.86 µM, respectively. For the same molecule, the TGI in test [1] is greater than 100 µM; in [2], 4.54 µM; in test [4] it was greater than 100 µM; in [5], greater than 100 µM; in test [6] it was greater than 100 µM; in test [7] it was 4.91 µM. Besides, the TGI is 4.59 µM in [8], 61.9 µM in [9] and greater than 100 µM in test [10].
Turning to `O=C(Oc1ccccc1)N(c1ccccc1)c1ccccc1`, the GI50 in test [1] is 26.2 µM; in test [2], 32.2 µM; in test [3] it was 25.8 µM; in [4] it was 21.9 µM; in test [5], 21.8 µM; in test [6] it was 45.9 µM. The values for the GI50 in [8], in test [9] and in test [10] were 19.6 µM, 38.8 µM and 26.4 µM, respectively. The TGI in test [1] is greater than 100 µM; in test [2], greater than 100 µM; in test [3] it was greater than 100 µM; in test [4], 84.7 µM; in test [5], 72.2 µM; in test [6], greater than 100 µM. For the same molecule, the TGI in [8] is 52.5 µM; in test [9], greater than 100 µM; in [10], 83 µM.
For the molecule `O=S(=O)(NC1=NCCN1C(=S)SN1CCn2c1nsc2=S)c1ccc(Oc2ccccc2)cc1`, the GI50 in [1] is greater than 100 µM; in test [2] it was greater than 100 µM; in test [4], 43 µM; in [5], 77.4 µM; in [6], greater than 100 µM; in [7], 30.2 µM. Besides, the figures for the GI50 in [8], in test [9] and in [10] were 39.5 µM, 67 µM and greater than 100 µM, respectively. Moreover, the TGI in test [1], in [2], in [4], in [5], in test [6] and in test [7] was greater than 100 µM throughout. Moreover, the TGI in [8], in [9] and in test [10] was greater than 100 µM in each case.
As for `COc1cc(-c2nn(-c3ccc(NC(=O)Nc4cc(C(F)(F)F)cc(C(F)(F)F)c4)cc3)cc2-c2ccncc2)ccc1Cl`, the GI50 in test [1] was 2.47 µM; in test [2], 1.51 µM; in [3] it was 2.48 µM; in [4], 2.01 µM; in test [5], 2 µM; in test [6] it was 1.91 µM. Further, the values for the GI50 in test [8], in test [9] and in test [10] were 1.99 µM, 1.87 µM and 2.3 µM, respectively. The TGI in test [1] was 13 µM; in test [2], 3.1 µM; in [3], greater than 100 µM; in test [4], 5.56 µM; in test [5], 7.38 µM; in test [6], 5.16 µM. Moreover, the TGI was 5.35 µM in test [8], 3.84 µM in [9] and 7.73 µM in test [10].
Consider `COc1cc(OCc2ccccc2)c2c(CCC(=O)O)cc(=O)oc2c1` (tested in a mixture with another compound), for which the TGI in [1], in [3], in test [4], in test [5], in test [6] and in [7] was greater than 100 µM throughout. The TGI in [8], in test [9] and in test [10] was greater than 100 µM throughout.
As for `COc1ccc(Cn2cc(COc3cc(/C=C/C(=O)c4cc(OC)c(OC)c(OC)c4)ccc3OC)nn2)cc1`, the GI50 in test [1] was 3.09 µM; in test [2], 2.72 µM; in [3] it was 3.13 µM; in test [4], 31.3 µM; in test [5] it was 3.49 µM; in test [7], 2.58 µM. Further, the GI50 was 3.63 µM in test [9] and 10.3 µM in [10]. Also, the TGI was 47.5 µM in test [1]; 7.97 µM in [2]; greater than 100 µM in [3]; greater than 100 µM in test [4]; greater than 100 µM in [5]; 29.6 µM in test [7]. Also, the TGI in test [9] and in test [10] was greater than 100 µM each time.
Take `COC(=O)C1C(C(=O)O)C2(c3ccccc3)C(=O)C1(c1ccccc1)C(c1ccccc1)=C2c1ccccc1` (centres undefined): the GI50 was 19.8 µM in [1]; 21.2 µM in [2]; 21.8 µM in [3]; 16.5 µM in test [4]; 18.4 µM in test [5]; 19.3 µM in test [6]. For the same molecule, the values for the GI50 in test [7], in test [9] and in [10] were 15.7 µM, 19.8 µM and 19.6 µM, respectively. For the same molecule, the TGI in test [1] was 39.1 µM; in [2], 41.4 µM; in [3], greater than 100 µM; in [4] it was 31.5 µM; in [5], 34 µM; in test [6], 35.3 µM. Further, the TGI in test [7] amounted to 45.7 µM; in test [9], 40.2 µM; in [10], 40.9 µM.
As to `COc1cccc2c1C(=O)c1c(O)c3c(c(O)c1C2=O)C[C@@](O)(/C(CO)=N/NC(=O)CCCCCN1C(=O)C=CC1=O)C[C@@H]3O[C@H]1C[C@H](N)[C@H](O)[C@H](C)O1`, the GI50 is 0.674 µM in test [2]; 0.825 µM in test [3]; 0.927 µM in test [4]; greater than 100 µM in test [5]; 4.04 µM in test [6]; 0.32 µM in test [7]. The GI50 in test [8] was 0.368 µM; in test [9], 0.357 µM; in [10], 1.06 µM. For the same molecule, the TGI was 10.5 µM in test [2]; greater than 52.5 µM in test [3]; 5.98 µM in test [4]; greater than 100 µM in [5]; greater than 100 µM in test [6]; greater than 28.2 µM in test [7]. For the same molecule, the results for the TGI in test [8], in test [9] and in test [10] were 2.99 µM, greater than 49 µM and 4.32 µM, respectively.
Turning to `NCCCNc1nc2ccccc2c2c(=O)c3cc(F)ccc3sc12`, the GI50 in test [1] is 1.59 µM; in [2] it was 1.43 µM; in test [4], 1.64 µM; in test [5] it was 1.7 µM; in test [6] it was 1.61 µM; in [7], 1.77 µM. In addition, the figures for the GI50 in test [8], in test [9] and in [10] were 1.31 µM, 1.64 µM and 1.79 µM, respectively. Besides, the TGI in test [1] was 3.48 µM; in test [2], 3.15 µM; in test [4], 3.19 µM; in test [5] it was 3.36 µM; in test [6] it was 3.05 µM; in test [7], 3.65 µM. The TGI is 2.64 µM in test [8], 3.27 µM in test [9] and 3.81 µM in [10].
